Here are results for ten molecules from ChEMBL document CHEMBL1201861, “Genomics of Drug Sensitity in Cancer screening data, Wellcome Trust Sanger Institute”.

Holding throughout (experiment): cells
One assay concerns HT55. The assay is classed as functional, cell-based, Homo sapiens. The conditions noted are these: Homo sapiens, HT55.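 Further: cell viability readout measuring growth inhibition of human HT55 cells.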
A further assay deals with EPLC-272H. The assay is classed as functional, cell-based. The conditions noted are these: Homo sapiens.
For another assay, the system named is NCI-H2291. It counts as functional, cell-based. The conditions noted are these: Homo sapiens.
For the next assay, the system named is NCI-H1703. The assay is classed as functional, cell-based, Homo sapiens. The conditions noted are these: Homo sapiens, NCI-H1703.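 Further: growth inhibition of NCI-H1703 cells, read out via a cell viability assay.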
A further assay relates to NCI-H1573. It counts as functional, cell-based. The conditions noted are these: Homo sapiens.
In the next assay the test system is BALL-1. It counts as functional, cell-based. The conditions noted are these: Homo sapiens.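 Further: growth inhibition of BALL-1 cells, read out with a cell viability assay.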
A further assay deals with TGBC11TKB. It counts as functional, cell-based. The conditions noted are these: Homo sapiens.
The test system of a further assay is TI-73. The assay is classed as functional, cell-based. The conditions noted are these: Homo sapiens.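 Further: cell viability assay measuring how much compounds suppress growth of the cultured cell line.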
The test system of the next assay is HCT-15. The assay is classed as functional, cell-based, Homo sapiens. The conditions noted are these: Homo sapiens, HCT-15.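 Further: cell viability readout, IC50 reflecting suppression of HCT-15 cell growth.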
For another assay, the system named is LU-135. The assay is classed as functional, cell-based. The conditions noted are these: Homo sapiens.
The subject of a further assay is MOLT-13. It counts as functional, cell-based. The conditions noted are these: Homo sapiens.
The next assay has as its system CFPAC-1. It counts as functional, cell-based. The conditions noted are these: Homo sapiens.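 Further: cell viability readout used to gauge suppression of CFPAC-1 cell proliferation.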
The next assay relates to MEL-JUSO. The assay is classed as functional, cell-based, Homo sapiens. The conditions noted are these: Homo sapiens, MEL-JUSO.
For another assay, the system named is SW 1116. It counts as functional, cell-based. The conditions noted are these: Homo sapiens.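 Further: growth inhibition of SW1116 cells, read out with a cell viability assay.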
A further assay relates to HuO9. The assay is classed as functional, cell-based, Homo sapiens. The conditions noted are these: Homo sapiens, HuO9.
In another assay the test system is OC-314. It counts as functional, cell-based. The conditions noted are these: Homo sapiens.
The next assay has as its system H9. The assay is classed as functional, cell-based. The conditions noted are these: Homo sapiens.
Another assay relates to H-EMC-SS. It counts as functional, cell-based. The conditions noted are these: Homo sapiens.
The test system of another assay is 23132-87. It counts as functional, cell-based, Homo sapiens. The conditions noted are these: Homo sapiens.
For the next assay, the system named is NCI-H2009. The assay is classed as functional, cell-based, Homo sapiens. The conditions noted are these: Homo sapiens, NCI-H2009.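 Further: cell viability assay measuring inhibition of NCI-H2009 cell growth.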
Another assay deals with YH-13. The assay is classed as functional, cell-based. The conditions noted are these: Homo sapiens.
A further assay concerns SJRH30. The assay is classed as functional, cell-based. The conditions noted are these: Homo sapiens.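 Further: growth inhibition of human SJRH30 cells, read out with a cell viability assay.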
A further assay has as its system Kasumi 1. It counts as functional, cell-based. The conditions noted are these: Homo sapiens.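 Further: growth inhibition of human Kasumi-1 cells, read out by a cell viability assay.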
The next assay has as its system HSC-4. It counts as functional, cell-based, Homo sapiens. The conditions noted are these: Homo sapiens, HSC-4.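 Further: growth inhibition of human HSC-4 cells, read out with a cell viability assay.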

Description for 23132-87: SANGER: Inhibition of human 23132-87 cell growth in a cell viability assay.
Description for BALL-1: SANGER: Inhibition of human BALL-1 cell growth in a cell viability assay.
Description for CFPAC-1: SANGER: Inhibition of human CFPAC-1 cell growth in a cell viability assay.
Description for EPLC-272H: SANGER: Inhibition of human EPLC-272H cell growth in a cell viability assay.
Description for H-EMC-SS: SANGER: Inhibition of human H-EMC-SS cell growth in a cell viability assay.
Description for H9: SANGER: Inhibition of human H9 cell growth in a cell viability assay.
Description for HCT-15: SANGER: Inhibition of human HCT-15 cell growth in a cell viability assay.
Description for HSC-4: SANGER: Inhibition of human HSC-4 cell growth in a cell viability assay.
Description for HT55: SANGER: Inhibition of human HT55 cell growth in a cell viability assay.
Description for HuO9: SANGER: Inhibition of human HuO9 cell growth in a cell viability assay.
Description for Kasumi 1: SANGER: Inhibition of human KASUMI-1 cell growth in a cell viability assay.
Description for LU-135: SANGER: Inhibition of human LU-135 cell growth in a cell viability assay.
Description for MEL-JUSO: SANGER: Inhibition of human MEL-JUSO cell growth in a cell viability assay.
Description for MOLT-13: SANGER: Inhibition of human MOLT-13 cell growth in a cell viability assay.
Description for NCI-H1573: SANGER: Inhibition of human NCI-H1573 cell growth in a cell viability assay.
Description for NCI-H1703: SANGER: Inhibition of human NCI-H1703 cell growth in a cell viability assay.
Description for NCI-H2009: SANGER: Inhibition of human NCI-H2009 cell growth in a cell viability assay.
Description for NCI-H2291: SANGER: Inhibition of human NCI-H2291 cell growth in a cell viability assay.
Description for OC-314: SANGER: Inhibition of human OC-314 cell growth in a cell viability assay.
Description for SJRH30: SANGER: Inhibition of human SJRH30 cell growth in a cell viability assay.
Description for SW 1116: SANGER: Inhibition of human SW1116 cell growth in a cell viability assay.
Description for TGBC11TKB: SANGER: Inhibition of human TGBC11TKB cell growth in a cell viability assay.
Description for TI-73: SANGER: Inhibition of human TI-73 cell growth in a cell viability assay.
Description for YH-13: SANGER: Inhibition of human YH-13 cell growth in a cell viability assay.

For `CCOc1nc(NC(=O)Cc2cc(OC)ccc2OC)cc(N)c1C#N`, the IC50 with HT55, in the assay on EPLC-272H, in the assay with NCI-H2291, with NCI-H1703, with NCI-H1573 and in the assay on BALL-1 was > 10 µM in each case. Moreover, the IC50 in the assay on TGBC11TKB, in the assay on TI-73, with HCT-15, in the assay on LU-135, with MOLT-13 and with CFPAC-1 was > 10 µM in each case. Further, the IC50 in the assay on MEL-JUSO, in the assay on SW 1116, in the assay with HuO9, in the assay with OC-314, with H9 and with H-EMC-SS was > 10 µM each time. Also, the IC50 with 23132-87, in the assay on NCI-H2009, with YH-13 and in the assay on SJRH30 was > 10 µM throughout.
With `CC(=O)O[C@@H]1[C@@H](OC(C)=O)[C@@H](O)[C@H](Oc2c(-c3ccc(O)cc3)oc3cc(O)cc(O)c3c2=O)O[C@H]1C`, the IC50 with EPLC-272H, with NCI-H2291, with NCI-H1703, with NCI-H1573, in the assay on BALL-1 and in the assay on TGBC11TKB was > 10 µM in each case. Besides, the IC50 with TI-73, in the assay with HCT-15, in the assay with LU-135, in the assay with MOLT-13, with CFPAC-1 and in the assay with MEL-JUSO was > 10 µM each time. Further, the IC50 with SW 1116, with HuO9, in the assay with OC-314, with H9, with H-EMC-SS and with 23132-87 was > 10 µM throughout. For the same molecule, the IC50 with NCI-H2009, in the assay on YH-13 and in the assay with SJRH30 was > 10 µM throughout.
In the case of `COc1cc(F)c(F)c(Nc2ccc(I)cc2F)c1NS(=O)(=O)C1(CC(O)CO)CC1` (configuration not stated), the IC50 with HT55 was 2.43 µM; in the assay with EPLC-272H it was 0.185 µM; in the assay on NCI-H2291, 0.397 µM; in the assay on NCI-H1573, > 5 µM; with BALL-1, > 5 µM; in the assay with TGBC11TKB, > 5 µM. For the same molecule, the IC50 was 1.83 µM in the assay on TI-73; > 5 µM with LU-135; > 5 µM with MOLT-13; > 5 µM in the assay on CFPAC-1; > 5 µM in the assay on SW 1116; > 5 µM with HuO9. Moreover, the IC50 in the assay on OC-314 was > 5 µM; in the assay on H9 it was 0.0201 µM; in the assay with H-EMC-SS, 0.917 µM; with YH-13, 2.68 µM; in the assay with SJRH30 it was > 5 µM.
For `O=C1N=C(NCc2cccs2)S/C1=C\c1ccc2ncccc2c1`, the IC50 with HT55, in the assay on EPLC-272H, with NCI-H2291, with NCI-H1573, in the assay with BALL-1 and in the assay with TGBC11TKB was > 5 µM in each case. The IC50 in the assay with TI-73, in the assay with LU-135, with MOLT-13, with CFPAC-1, in the assay with SW 1116 and with HuO9 was > 5 µM throughout. For the same molecule, the IC50 in the assay with OC-314 was > 5 µM; in the assay on H9 it was > 5 µM; with H-EMC-SS, > 5 µM; in the assay with YH-13 it was 4.76 µM; in the assay with SJRH30 it was > 5 µM.
As to `COc1ccc(-c2ccc3c(N4CCOC[C@@H]4C)nc(N4CCOC[C@@H]4C)nc3n2)cc1CO` [AZD-8055], the IC50 in the assay with HT55 was > 2 µM; with EPLC-272H it was 0.431 µM; in the assay on NCI-H2291 it was > 2 µM; with NCI-H1573, 0.902 µM; in the assay on BALL-1 it was > 2 µM; in the assay with TGBC11TKB it was > 2 µM. For the same molecule, the IC50 was 0.457 µM with TI-73; > 2 µM in the assay on LU-135; 0.665 µM in the assay with MOLT-13; > 2 µM with CFPAC-1; > 2 µM in the assay with SW 1116; 0.407 µM in the assay with HuO9. Also, the concentration for half-maximal inhibition (IC50) in the assay with OC-314 was 1.3 µM; with H9 it was 0.0669 µM; with H-EMC-SS it was > 2 µM; in the assay on YH-13, 0.549 µM; with SJRH30, > 2 µM.
For the molecule `O=C(NOCC1CC1)c1ccc(F)c(F)c1Nc1ccc(I)cc1Cl` [CI-1040], the 50% inhibitory concentration (IC50) with Kasumi 1 is 0.399 µM; in the assay on EPLC-272H, 5 µM; in the assay with NCI-H2291 it was 1.33 µM; in the assay with NCI-H1703 it was > 10 µM; in the assay on NCI-H1573, > 10 µM; in the assay on BALL-1, > 10 µM. Also, the IC50 in the assay on TGBC11TKB is > 10 µM; with HSC-4 it was 0.244 µM; in the assay with TI-73 it was > 10 µM; with HCT-15, > 10 µM; in the assay with LU-135 it was 7.56 µM; with MOLT-13 it was 5.07 µM. For the same molecule, the IC50 with CFPAC-1 is > 10 µM; with MEL-JUSO, 5.74 µM; with SW 1116, 1.56 µM; in the assay with HuO9, > 10 µM; in the assay on OC-314, > 10 µM; in the assay with H9, 0.0228 µM. For the same molecule, the IC50 in the assay with H-EMC-SS is 1.3 µM; in the assay with 23132-87 it was 5.17 µM; with NCI-H2009, > 10 µM; in the assay with YH-13, > 10 µM; with SJRH30, > 10 µM.
As for `CC(=O)O[C@@]12CO[C@@H]1C[C@H](O)[C@@]1(C)C(=O)[C@H](O)C3=C(C)[C@@H](OC(=O)[C@H](O)[C@@H](NC(=O)OC(C)(C)C)c4ccccc4)C[C@@](O)([C@@H](OC(=O)c4ccccc4)[C@H]21)C3(C)C` [DOCETAXEL], the 50% inhibitory concentration (IC50) with Kasumi 1 is 0.00511 µM; in the assay with HT55, > 0.01 µM; in the assay with EPLC-272H, 0.00111 µM; in the assay on NCI-H2291, > 0.01 µM; in the assay on NCI-H1703 it was 0.00157 µM; with NCI-H1573, 0.00607 µM. Moreover, the IC50 is > 0.01 µM in the assay on BALL-1; 0.00469 µM in the assay with TGBC11TKB; 0.000239 µM with HSC-4; 0.00144 µM with TI-73; > 0.01 µM in the assay with LU-135; > 0.01 µM with MOLT-13. Moreover, the IC50 with CFPAC-1 is > 0.01 µM; with MEL-JUSO, 0.00639 µM; with SW 1116, > 0.01 µM; in the assay with HuO9 it was 0.00346 µM; with OC-314 it was 0.00256 µM; in the assay on H9, 0.00124 µM. The results for the IC50 with H-EMC-SS, with 23132-87 and with YH-13 were > 0.01 µM, 0.00155 µM and 0.000791 µM, respectively.
Consider `COc1ccc(C2=N[C@@H](c3ccc(Cl)cc3)[C@@H](c3ccc(Cl)cc3)N2C(=O)N2CCNC(=O)C2)c(OC(C)C)c1` [NUTLIN-3], for which the IC50 in the assay with HT55, with EPLC-272H, with NCI-H2291, with NCI-H1573, in the assay on BALL-1 and with TGBC11TKB was > 8 µM throughout. For the same molecule, the IC50 with TI-73, in the assay with LU-135, in the assay on MOLT-13, with CFPAC-1, with SW 1116 and in the assay on HuO9 was > 8 µM throughout. The IC50 with OC-314 was > 8 µM; in the assay on H9 it was > 8 µM; with H-EMC-SS, 6.39 µM; in the assay on YH-13 it was > 8 µM; in the assay with SJRH30, > 8 µM.
For the molecule `O=C(c1cc(Cc2n[nH]c(=O)c3ccccc23)ccc1F)N1CCN(C(=O)C2CC2)CC1` [OLAPARIB], the IC50 with Kasumi 1 was 4.4 µM; in the assay on HT55, > 5 µM; with EPLC-272H it was > 5 µM; in the assay on NCI-H2291, > 5 µM; with NCI-H1703 it was > 5 µM; in the assay with NCI-H1573 it was > 5 µM. Besides, the IC50 with BALL-1, with TGBC11TKB, in the assay with HSC-4, in the assay on TI-73, in the assay on LU-135 and with MOLT-13 was > 5 µM each time. Also, the IC50 in the assay on CFPAC-1, in the assay on MEL-JUSO, in the assay with SW 1116, in the assay with HuO9, in the assay with OC-314 and in the assay on H9 was > 5 µM in each case. The IC50 with H-EMC-SS and in the assay on YH-13 was > 5 µM in each case.
On to `C=CCNC1=C2C[C@@H](C)C[C@H](OC)[C@H](O)[C@@H](C)/C=C(\C)[C@H](OC(N)=O)[C@@H](OC)/C=C\C=C(/C)C(=O)NC(=CC1=O)C2=O` [TANESPIMYCIN], for which the IC50 with HT55 was > 1 µM; in the assay with EPLC-272H, 0.062 µM; in the assay on NCI-H2291, 0.479 µM; in the assay with NCI-H1703, 0.414 µM; in the assay on NCI-H1573, 0.456 µM; in the assay on BALL-1, > 1 µM. Moreover, the IC50 in the assay on TGBC11TKB was 0.109 µM; with TI-73, 0.018 µM; with HCT-15, > 1 µM; in the assay with LU-135, > 1 µM; with MOLT-13 it was > 1 µM; in the assay on CFPAC-1 it was 0.375 µM. Also, the IC50 is 0.0447 µM with MEL-JUSO; > 1 µM in the assay with SW 1116; 0.0759 µM with HuO9; 0.167 µM with OC-314; 0.0437 µM in the assay with H9; > 1 µM with H-EMC-SS. Moreover, the half-inhibitory concentration (IC50) was 0.0695 µM with 23132-87, 0.853 µM in the assay on NCI-H2009, 0.0572 µM in the assay on YH-13 and > 1 µM with SJRH30.

For orientation: IC50 means the point on the concentration scale where inhibition reaches its midpoint. A higher IC50 goes with lower potency.
